Experimental data reported in US8686113B2 (priority 2009, dated 2014).
≈ marks a conversion by molar mass, not a printed value. Where two headings read alike, the source gives them in different places. Non-standard residues stand in square brackets, D forms with d. Residues, ends and D or L forms follow the SMILES beside them. No end group written: not given here. Hyp = O=C(O)[C@@H]1C[C@@H](O)CN1; Orn = NCCC[C@H](N)C(=O)O

Tests used:
[1] = system: M. luteus 10240; type: cell-based, Micrococcus luteus; conditions: alanine scan
Description: The purified peptides and peptide derivatives were diluted in water to a final concentration of 500 μg/mL. The test microbes were plated out from a culture in the logarithmic growth phase at a concentration of approx. 3×10^5 cells/mL in 1% tryptic soy broth and 1.2% agarose (Fluka Chemie GmbH, Buchs, Switzerland). With spacing of 3 cm, in each case 10 μL of aqueous peptide solution (500 μg/mL) or 10 μL of water and antibiotic solution as controls were added dropwise. After incubation for 20 h at 37° C., the inhibition zone diameter (IZD) was determined. All tests were performed in aerobic conditions.

[2] = system: human erythrocytes; assay: Hemolysis test; type: cell-based; conditions: 1 h at 37° C., relative to Triton X-100
Text: Another possibility for investigating the cytotoxicity of the peptides and peptide derivatives is the hemolysis test. The hemolytic activity is investigated on human erythrocytes (Ryge T S & Hansen P R. Potent antibacterial lysine-peptoid hybrids identified from a positional scanning combinatorial library. Bioorganic & Medicinal Chemistry 14: 4444-51, 2006), which the Leipzig University Hospital (Germany) made available as human erythrocyte concentrate in sodium chloride-adenine-glucose-mannitol buffer (stored at 4° C.). The erythrocytes were centrifuged off at 1000 g and washed three times with ten times the volume of cold phosphate-buffered saline (PBS, pH 7.4). The erythrocytes were diluted to a final concentration of 1% in PBS. One hundred microliters of erythrocyte suspension was pipetted into each V-shaped well of a 96-well polypropylene microtiter plate (Greiner Bio-One GmbH). Then 100 μL of the peptides dissolved in PBS was added to each position, to obtain a dilution series from 600 μg/mL to 4.7 μg/mL in seven dilution steps. The microtiter plate was incubated at 37° C. for 1 h and then centrifuged at 1000*g. 100 μL was taken from the supernatant, transferred to a 96-well flat-bottomed polystyrene microtiter plate (Greiner Bio-One GmbH) and the absorption was determined at 405 nm in a Sunrise microtiter plate reader (Tecan Trading AG, Mannedorf, Switzerland), to evaluate the release of the heme group. PBS or 0.1% Triton X-100® ((p-tert-octylphenoxy) polyethoxyethanol; Fluka Chemie GmbH, Buchs, Switzerland) and melittin (SIGMA-Aldrich-Laborchemikalien, Taufkirchen, Germany) were used as negative or positive controls. All hemolysis tests were carried out twice independently as double determination and the degree of hemolysis was determined from the following equation (Park Y et al. A Leu-Lys-rich antimicrobial peptide: activity and mechanism. Biochimica et Biophysica Acta-Proteins and Proteomics 1645: 172-82, 2003): Epeptide−EPBS)/ETriton−EPBS)×100% E=extinction at 405 nm

[3] = E. coli lysate with 0.5 mg/mL protein concentration; conditions: E. coli BL21 A1, 37° C., up to 360 min
[4] = mouse, serum, Half-life in 25% mouse serum, 25% aqueous mouse serum, 37° C., 75 μg/mL peptide
[5] = mouse, serum
[6] = Stability against bacterial proteases in E. coli lysate; type: in vitro ADME; conditions: E. coli lysate with 0.5 mg/mL protein concentration, 37° C.
Description: For the bacterial lysate, 500 mL of nutrient broth (Carl Roth GmbH+Co. KG, Karlsruhe) was inoculated with E. coli BL21 A1 and incubated overnight at 37° C. 2×250 mL bacterial suspension were centrifuged for 25 min at 5000 rpm and 4° C. in a Beckman Avanti™ J-20-XP centrifuge with JLA-10.500 rotor (Beckman Coulter, Fullerton, U.S.A.). The pellets were each suspended in 30 mL PBS (pH 7.4) and centrifuged again in a Beckman Allegra™ 2IR centrifuge (Beckman Coulter, Fullerton, U.S.A.). The pellets were each suspended in 10 mL PBS and were disrupted with ultrasound (Vibra-cell™ microtip, Fisher Bioblock Scientific, Illkirch, France) 2×5 min (750 W; amplitude 40%; 2 s on/3 s off) on ice. The bacterial lysates were combined and 1 mL aliquots were centrifuged at 15400 rpm for 20 min at 4° C. (Beckman Allegra™). The supernatants were removed and stored at −20° C. The protein content of the bacterial lysate was determined by protein determination according to Bradford.
A solution of 0.15 μg/mL peptide in bacterial lysate with protein content of 1.5 mg/mL or 0.5 mg/mL was incubated at 37° C. After 0, 30, 60, 120, 240 or 360 min, 200 μL was taken from each and the proteins were precipitated with 50 μL of 15% trichloroacetic acid. Then it was incubated for 10 min at 4° C. and then centrifuged for 5 min at 13000 rpm in a Minispin desktop centrifuge. 210 μL was taken from the supernatant and neutralized with 1 mol/L sodium hydroxide solution. The intact peptide and the degradation products were analyzed by HPLC. 60 μL of 3% aqueous acetonitrile with 0.1% trifluoroacetic acid (TFA) was added to the solution and 250 μL of the mixture was injected. After chromatographic separation, the constituents were identified by MALDI-TOF-MS,
In order to investigate the stability against bacterial proteases, a lysate was prepared from an overnight culture of E. coli BL21 A1 and the peptides were incubated in it. Using Bradford protein determination, the protein concentration was adjusted to 0.5 or 1.5 mg/mL.

[7] = system: Escherichia coli DSM 10233
[8] = system: Klebsiella pneumoniae DSM 681
[9] = system: Pseudomonas aeruginosa DSM 3227
[10] = system: E. coli 045-849 SENTRY; conditions: ¼ Muller-Hinton medium
[11] = system: K. pneumoniae ATCC 27799; conditions: ATCC 27799
[12] = system: S. typhimurium s5 (J. Weiser); conditions: ¼ Muller-Hinton medium
[13] = system: E. coli ATCC BAA-457; conditions: ¼ Muller-Hinton medium
[14] = system: K. pneumoniae K6 ATCC 700603; conditions: ATCC 700603
[15] = system: P. aeruginosa 10 J. Wilson
[16] = system: S. typhimurium ATCC 14028
[17] = system: M. luteus 10240; assay: Growth inhibition assay (microdilution MIC); type: cell-based, Micrococcus luteus; conditions: 10240, 20 h
Procedure, shortened: (§1)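 Broth microdilution in 1% TSB with twofold peptide series, final 128 μg/mL to 62.5 ng/mL, against 5×10^6 bacteria/mL stock suspension added 1:1. Incubated 20 h at 37 °C, growth read by absorbance at 595 nm; MIC is the lowest concentration with no growth, determined in triplicate.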

[18] = background statement; cited from earlier work
[19] = in vitro; conditions: mouse, 100% mouse serum
[20] = 25% aqueous mouse serum, 37° C., 75 μg/mL peptide
[21] = system: E. coli BL21 A1; type: cell-based, Escherichia coli; conditions: BL21, 20 h
Procedure, shortened: as §1

[22] = system: K. pneumoniae 012-3131
[23] = system: E. coli D31 J. Wilson; conditions: ¼ Muller-Hinton medium
[24] = system: P. vulgaris ATCC 6896; conditions: ATCC 6896
[25] = system: P. mirabilis ATCC 7002; conditions: ATCC 7002
[26] = system: S. typhimurium ATCC 700408
[27] = system: S. saprophyticus 15305; conditions: 15305
[28] = system: P. aeruginosa 39324
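Throughout, for Half-life in 25% mouse serum: intact peptide left at successive time points measured by reversed-phase HPLC with an acetonitrile gradient in the supernatant after precipitation of serum proteins.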

H-VDKPPYLPRPRPPRRIYAR-NH2 [SEQ ID NO. 46]
increase in inhibition zone relative to oncocin, M. luteus [1]: 0.7 cm

GNNRPVYIPQPRPPHPRL [compound 87]
Degree of hemolysis [%] at 600 μg/mL [2]: 1.2%

(p-tert-octylphenoxy) polyethoxyethanol [Triton X-100, reference compound]
Degree of hemolysis [%] at 600 μg/mL [2]: 100%

VDKPPYLPRPRPPRO-Tle-YNO-NH2
not cleaved [3]: >240 min, 90%

H-VDKPPYLPRPRPPRRIYNR-NH2 [compound 18]
half-life [4]: 1 h
half-life [5]: 0.5 h
half-life [6]: 1 h
MIC E. coli DSM 10233 [7]: 16 µg/mL
MIC K. pneumoniae DSM 681 [8]: 4 µg/mL
MIC P. aeruginosa DSM 3227 [9]: >32 µg/mL
Degree of hemolysis [%] at 600 μg/mL [2]: 1.5%
MIC E. coli 045-849 SENTRY [10]: 4 µg/mL
MIC K. pneumoniae ATCC 27799 [11]: 16 µg/mL
MIC S. typhimurium s5 (J. Weiser) [12]: 4 µg/mL
MIC E. coli SEQ 102ATCC # BAA-4 57 [13]: 4 µg/mL
MIC K. pneumoniae K6 ATCC 700603 [14]: 8 µg/mL
MIC P. aeruginosa 10 J. Wilson [15]: 8 µg/mL
MIC S. typhimurium ATCC 14028 [16]: 2 µg/mL

GKPRPYSPRPTSHPRPIRV [compound 89]
Degree of hemolysis [%] at 600 μg/mL [2]: 1.1%

GKPRPYSPRPTSHPRPIRV-OH [SEQ ID NO. 89, reference compound]
MIC M. luteus 10240 [17]: 0.5 µg/mL
degradation in mammalian serum (25%) [18]: broken down within an hour

VDKPPYLPRPRP-4tHyp-R-4tHyp-Tle-YNO-NH2
not cleaved [3]: >240 min, 90%

VDKGSYLPRPTPPRPIYNRN-NH2 [SEQ ID NO. 91]
half-life in mammalian serum (25%) [18]: 2 h

CC[C@H](C)[C@H](NC(=O)[C@@H]1C[C@@H](O)CN1C(=O)[C@H](CCCNC(=N)N)NC(=O)[C@@H]1CCCN1C(=O)[C@@H]1CCCN1C(=O)[C@H](CCCNC(=N)N)NC(=O)[C@@H]1CCCN1C(=O)[C@H](CCCNC(=N)N)NC(=O)[C@@H]1CCCN1C(=O)[C@H](CC(C)C)NC(=O)[C@H](Cc1ccc(O)cc1)NC(=O)[C@@H]1CCCN1C(=O)[C@@H]1CCCN1C(=O)[C@H](CCCCN)NC(=O)[C@H](CC(=O)O)NC(=O)[C@@H](N)C(C)C)C(=O)N[C@@H](Cc1ccc(O)cc1)C(=O)N[C@@H](CC(N)=O)C(=O)N[C@@H](CCCN)C(N)=O [compound 63] (H-VDKPPYLPRPRPPR[Hyp]IYN[Orn]-NH2)
remaining at 8 h, 75 μg/mL [19]: 60%
half-life [5]: > 8 h
Half-life in 25% mouse serum [20]: >6 h
MIC E. coli DSM 10233 [7]: 1 µg/mL (≈ 0.434 µM)
MIC K. pneumoniae DSM 681 [8]: 2 µg/mL (≈ 0.868 µM)
MIC P. aeruginosa DSM 3227 [9]: 16 to 32 µg/mL
MIC E. coli BL21 A1 [21]: 4 µg/mL (≈ 1.74 µM)

H-VDKPPYLPRPRPPRRAYNR-NH2 [SEQ ID NO. 44]
increase in inhibition zone relative to oncocin, M. luteus [1]: 0.7 cm

CC[C@H](C)[C@H](NC(=O)[C@H](CCCNC(=N)N)NC(=O)[C@H](CCCNC(=N)N)NC(=O)[C@@H]1C[C@@H](O)CN1C(=O)[C@@H]1CCCN1C(=O)[C@H](CCCNC(=N)N)NC(=O)[C@@H]1CCCN1C(=O)[C@H](CCCNC(=N)N)NC(=O)[C@@H]1CCCN1C(=O)[C@H](CC(C)C)NC(=O)[C@H](Cc1ccc(O)cc1)NC(=O)[C@@H]1CCCN1C(=O)[C@@H]1CCCN1C(=O)[C@H](CCCCN)NC(=O)[C@H](CC(=O)O)NC(=O)[C@@H](N)C(C)C)C(=O)N[C@@H](Cc1ccc(O)cc1)C(=O)N[C@@H](CC(N)=O)C(=O)N[C@@H](CCCNC(=N)N)C(N)=O [compound 24] (H-VDKPPYLPRPRP[Hyp]RRIYNR-NH2)
MIC M. luteus 10240 [17]: 8 µg/mL (≈ 3.33 µM)
half-life [4]: 1 h
half-life [5]: 0.583 h
MIC K. pneumoniae 012-3131 [22]: 2 µg/mL (≈ 0.831 µM)
MIC E. coli D31 J. Wilson [23]: 1 µg/mL (≈ 0.416 µM)
MIC E. coli 045-849 SENTRY [10]: 2 µg/mL (≈ 0.831 µM)
MIC K. pneumoniae ATCC 27799 [11]: 8 µg/mL (≈ 3.33 µM)
MIC S. typhimurium s5 (J. Weiser) [12]: 2 µg/mL (≈ 0.831 µM)
MIC E. coli SEQ 102ATCC # BAA-4 57 [13]: 4 µg/mL (≈ 1.66 µM)
MIC P. vulgaris ATCC 6896 [24]: 128 µg/mL (≈ 53.2 µM)
MIC K. pneumoniae K6 ATCC 700603 [14]: 8 µg/mL (≈ 3.33 µM)
MIC P. aeruginosa 10 J. Wilson [15]: 2 µg/mL (≈ 0.831 µM)
MIC P. mirabilis ATCC 7002 [25]: 128 µg/mL (≈ 53.2 µM)
MIC S. typhimurium ATCC 700408 [26]: 0.13 µg/mL (≈ 0.054 µM)
MIC S. saprophyticus 15305 [27]: 16 µg/mL (≈ 6.65 µM)
MIC P. aeruginosa 39324 [28]: 4 µg/mL (≈ 1.66 µM)
MIC S. typhimurium ATCC 14028 [16]: 2 µg/mL (≈ 0.831 µM)
MIC E. coli BL21 A1 [21]: 8 µg/mL (≈ 3.33 µM)
